Each structure is given as a SMILES string.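 Cultured in 96-well plates, cells were exposed to test compound for 48 hours across five concentrations. GI50 marks 50% less growth. TGI: concentration producing complete growth inhibition.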

The text below walks through data of PubChem BioAssay (NCI).

Common to all, as to experiment: growth of human tumour cells (NCI), 48 h
For test [1], the system named is NCI/ADR-RES ovarian.
The test system of test [2] is TK-10 renal.
Test [3] concerns LOX IMVI melanoma.
For test [4], the system named is OVCAR-5 ovarian.
Test [5] has as its system KM12 colon.
In test [6] the test system is ACHN renal.
Test [7] relates to HL-60(TB) leukemia.
The test system of test [8] is IGROV1 ovarian.
Test [9] deals with OVCAR-8 ovarian.
For test [10], the system named is UO-31 renal.

In the case of `Nc1ncnc2c1ncn2C1OC(COP(=O)(O)CP(=O)(O)O)C(O)C1O` (configuration not stated), the TGI in test [1], in test [2], in test [3], in test [4], in test [5] and in test [6] was over 100 µM in each case. For the same compound, the TGI in test [7], in test [8], in [9] and in test [10] was over 100 µM each time.
Take `O=C(O)CSCc1cccc2ccccc12`: the TGI in test [1], in [2], in [3], in [4], in [5] and in test [6] was over 100 µM throughout. Besides, the TGI in test [7], in test [8], in test [9] and in test [10] was over 100 µM each time.
As for `COc1ccc(C#Cc2ccccc2C#CCCCCO)cc1`, the GI50 in test [1] is 24.4 µM; in test [2], 16.7 µM; in [3] it was 16.9 µM; in [4] it was 18.7 µM; in [5] it was 17.7 µM; in [6], 21.7 µM. For the same compound, the GI50 is 23.7 µM in test [7], 18.8 µM in test [8], 18.1 µM in [9] and 21.2 µM in [10]. Moreover, the TGI in test [1] is 48.4 µM; in test [2], 35.2 µM; in test [3], 30.6 µM; in test [4] it was 37.6 µM; in test [5] it was 33.4 µM; in test [6], 45 µM. In addition, the TGI in test [7] is 44.7 µM; in test [8], 34.1 µM; in test [9] it was 38.6 µM; in test [10] it was 39.6 µM.
For `COC1=CC(c2ccc[nH]2)=N/C1=C\c1[nH]c(C)c(C(=O)OCc2ccccc2)c1C`, the GI50 in test [1] is 0.0714 µM; in test [2], 0.0854 µM; in test [3], 0.0189 µM; in test [4], 0.211 µM; in test [5], 0.0525 µM; in [6] it was 0.081 µM. Besides, the GI50 in [7] is 0.328 µM; in test [8], 0.286 µM; in [9] it was 0.11 µM; in test [10], 0.144 µM. Also, the TGI in test [1] stood at 1.36 µM; in test [2], 1.91 µM; in test [3], 0.042 µM; in test [4], 1.99 µM; in test [5] it was 1.52 µM; in test [6], 1.15 µM. The TGI turned out to be 20.2 µM in test [7], 9 µM in [8], 1.75 µM in test [9] and 0.336 µM in test [10].
Take `C=C1C(=O)O[C@H]2[C@H]1CC/C(CNC(=O)/C=C/c1ccc(Br)cc1)=C\CC[C@@]1(C)O[C@@H]21`: the GI50 is 2.59 µM in test [1]; 1.24 µM in test [2]; 0.594 µM in test [3]; 1.7 µM in [4]; 1.87 µM in [5]; 0.848 µM in test [6]. Moreover, the GI50 in test [7] was 0.744 µM; in test [8] it was 1.24 µM; in test [9] it was 1.67 µM; in test [10] it was 0.97 µM. In addition, the TGI was found to be 10.5 µM in test [1]; 2.58 µM in test [2]; 1.86 µM in test [3]; 3.75 µM in test [4]; 3.8 µM in test [5]; 2.08 µM in test [6]. Besides, the TGI in test [7] was 7.28 µM; in [8] it was 3.05 µM; in test [9], 5.75 µM; in test [10], 2.19 µM.
`CN(C)CCCOc1ccccc1NC1=C(Cl)C(=O)C(Nc2ccccc2OCCCN(C)C)=C(Cl)C1=O`: the GI50 is 3.29 µM in test [1]; 1.93 µM in [2]; 0.18 µM in test [3]; 1.4 µM in test [4]; 0.762 µM in test [5]; 0.941 µM in test [6]. Moreover, the GI50 in test [7] was 0.244 µM; in test [8], 0.355 µM; in test [9] it was 0.301 µM; in test [10], 1.21 µM. For the same compound, the TGI in test [1] turned out to be 12.7 µM; in [2] it was 3.36 µM; in test [3] it was 0.355 µM; in [4], 2.84 µM; in test [5], 2.2 µM; in test [6], 2.13 µM. Moreover, the TGI was 0.656 µM in test [7], 0.969 µM in test [8], 0.9 µM in [9] and 2.46 µM in test [10].
Take `Cc1nc2sccn2c1/C=C1/C(=O)Nc2ccccc21`: the GI50 in [1] is 3.51 µM; in [2], 6.55 µM; in test [3] it was 8.42 µM; in test [4], 38.3 µM; in test [5], 0.349 µM; in [6], 8.29 µM. Also, the GI50 in test [7] was 2.1 µM; in test [8], 2.27 µM; in [9], 12.7 µM; in test [10], 18.7 µM. Moreover, the TGI is over 51 µM in test [1]; over 78.1 µM in test [2]; over 100 µM in test [3]; over 100 µM in test [4]; over 100 µM in test [5]; over 100 µM in test [6]. The TGI in [7] was 7.25 µM; in test [8], over 25.2 µM; in [9] it was over 66.9 µM; in test [10] it was over 100 µM.
Turning to `Nc1ccn(C2OC(CO)C(O)C2F)c(=O)n1` (configuration not stated), the TGI in [1], in test [2], in [3], in test [4], in test [5] and in test [6] was over 5000 µM throughout. Besides, the TGI in [8] and in test [10] was over 5000 µM throughout. Further, the GI50 in test [2] was over 5000 µM; in test [3], over 5000 µM; in [4], over 5000 µM; in test [5] it was over 5000 µM; in [6], over 5000 µM; in test [7] it was 189 µM. The values for the GI50 in test [8], in test [9] and in [10] were over 5000 µM, 57.1 µM and over 5000 µM, respectively.
